{"source": "patent EP4623911A1", "about": "“PI4KB INHIBITORS FOR THE TREATMENT OF FATTY LIVER DISEASE” (ETH Zurich, priority 2024, dated 2025)", "key": {"ATGL [1]": {"test_system": "ATGL", "experiment": "Blocking of proteasome mediated degradation and autophagy, cellular ATGL protein", "type": "cell-based", "conditions": "proteasome blocked by MG132"}, "ATGL [2]": {"test_system": "ATGL", "experiment": "ATGL protein quantification via immunoblot in HepG2 cell type", "type": "cell-based, human", "experimental": "HepG2 cell type was cultured in RPMI medium with 10% FBS and 1% Pen/Strep on collagen-coated plates. Lipofectamine RNAiMAX reagent mediated siRNA (100 nM) was delivered to cells at the suspended state for 48 h. Different from HEK cells, it is not necessary to induce LDs via OA treatment in that there exist LDs in the HepG2 cell type at normal culture medium. The inventors treated HepG2 cells with 10 µM PF04620110 (DGAT1 inhibitor, Sigma) & PF-06424439 (DGAT2 inhibitor, Sigma) for 48 hours or with 5 µg/mL BFA (B5936, Sigma) for 6 hours to deplete LDs and intact Golgi in the HepG2 cell type respectively before glucose deprivation. To deprive glucose in the HepG2 cell type, we either added 2-DG at indicated concentrations to the culture medium or refresh cells with RPMI medium containing different glucose concentrations prepared from the same RPMI medium (Gibco, 11879020).\nAdipose depots, liver pieces, differentiated iBAs, HepG2, HEK293T and HEK293-AAV cell types were homogenized in RIPA buffer (50 mM Tris-HCl pH 7.4, 150 mM NaCl, 2 mM EDTA, 1.0% Triton X100, 0.5% sodium deoxycholate) with protease inhibitors (Complete, Roche) and phosphatase inhibitors (Halt phosphatase inhibitor cocktail, ThermoFisher). […] The concentration of WCE was determined by DC Protein Assay (Bio-Rad). […]"}, "wild-type mice": {"test_system": "wild-type mice", "experiment": "Glucose deprivation by 2-DG administration in mice", "type": "in vivo", "experimental": "All animal experiments were permitted by the Veterinary office of the Canton of Zurich. Both female and male mice were used in the experiments, and they were housed 2-5 littermates per cage in ventilated cages at standard housing conditions (22°C, 12 h reversed light/dark cycle, dark phase starting at 7 am) with normal chow diet (18% proteins, 4.5% fibers, 4.5% fat, 6.3% ashes, Provimi Kliba SA) and water. Health status of all the mouse lines were monitored regularly based on FELASA guidelines. 8-10 weeks old C57BL/6N male mice were fasted for 24 h or injected with 2-DG (2 g/kg BW) to induce glucose deprivation for different durations. Female ROSA26-LSL-spCas9 mice (The Jackson Lab strain) were intravenously injected with AAV8-U6-Pi4kb gRNAs-TBG-Cre, AAV8-U6-Sacm1l gRNAs-TBG-Cre, AAV8-U6-Cu/7 gRNAs-TBG-Cre and AAV8-U6-Fbxw8 gRNAs-TBG-Cre virus pools to express six gRNAs targeting individual gene and CAS9 in the liver at a dose of 3×10^11 genome copies/mouse. Two weeks later, livers were harvested for protein and RNA extraction after 6 hours fasting. To determine liver TG levels under NCD feeding condition, 4 weeks after AAV administration livers were harvested after 6 hours fasting. Also 4 weeks after AAV administration, the liver specific Cul7&Fbxw8 double knockout mice were injected with 2-DG (2 g/kg BW) to induce 1 hour glucose deprivation prior to liver harvesting for protein extraction.\nAdipose depots, liver pieces, differentiated iBAs, HepG2, HEK293T and HEK293-AAV cell types were homogenized in RIPA buffer (50 mM Tris-HCl pH 7.4, 150 mM NaCl, 2 mM EDTA, 1.0% Triton X100, 0.5% sodium deoxycholate) with protease inhibitors (Complete, Roche) and phosphatase inhibitors (Halt phosphatase inhibitor cocktail, ThermoFisher). The homogenates were centrifuged at 12,000×g for 10 min at 4°C to remove debris and collect whole cell extract (WCE). The concentration of WCE was determined by DC Protein Assay (Bio-Rad). After boiling the sample with Lämmeli buffer at 95°C for 5 min, equal amount of proteins was loaded and separated on 12% SDS-PAGE. The proteins were transferred to nitrocellulose membrane and blotted by ATGL (1:1000, Cell Signaling), CGI-58 (1:1000, Proteintech), phospho-HSL(Ser660) (1:1000, Cell Signaling), PLIN1 (1:1000, Cell Signaling), HSL (1:1000, Cell Signaling), γ-tubulin (1:10000, Sigma), FLAG (1:10000, Sigma; 1:1000, Cell Signaling), MGL (1:1000, Abcam), HA (1:1000, Cell signaling), FBXW8 (1:100, Santa Cruz; 1:1000, Sigma), CUL7 (1:100, Santa Cruz), HSP90 (1:1000, Cell Signaling), K48 polyubiquitin (1:1000, Cell signaling), PI4KB (1:1000, Sigma), SACM1L (1:1000, Sigma), AKT1 (1:1000, Cell Signaling), phospho-AKT1(Ser473) (1:1000, Cell Signaling), TGN46 (1:1000, Abcam), MAOA (1:1000, Abcam), PLIN2 (1:1000, Abcam), PMP70 (1:10000, Sigma), Calnexin (1:1000, Cell Signaling), ARF1 (1:1000, Invitrogen), GAPDH (1:1000, Cell Signaling), RAB7 (1:1000, Cell Signaling), alpha 1 Sodium Potassium ATPase (1:1000, Abcam), Cleaved Caspase-3 (1:1000, Cell Signaling), phospho-AMPKα (Thr172) (1:1000, Cell Signaling), AMPKα (1:1000, Cell Signaling) and GM130 (1:1000, Proteintech). The primay antibody signal was visualized by HRP-conjugated secondary antibodies (1:5000, Millipore) and the ImageQuant system (GE Healthcare Life Sciences).\nFor mouse insulin measurement, plasma was collected at different timepoints after 2-DG administration in wild type mice. 5 µl plasma sample was used to determine insulin levels via Ultra-sensitive mouse insulin ELISA kit (Crystal Chem, Cat# 90080) according to the manufacturer's protocol. The absorbance was measured via Synergy Gen5 Platereader at 450/630 nm. 2 µl plasma sample was used to determine glucose levels via Glucose Assay Kit (Sigma, MAK263) according to the manufacturer's protocol. The absorbance was read at 570 nm in Synergy Gen5 Platereader.\nPlasma collected from mice under different conditions was used to determine levels of lipolysis and liver injury. […]"}, "[3]": {"conditions": "1 hour after 2-DG administration"}}, "note": "Where a SMILES comes first, the peptide text is derived from it. The star is where a group is joined. Cbz = O=C(OCc1ccccc1)*"}
{"smiles": "CC(C)C[C@@H](C=O)NC(=O)[C@H](CC(C)C)NC(=O)[C@H](CC(C)C)NC(=O)OCc1ccccc1", "note": "[MG132] (Cbz-Leu-Leu-Leu-aldehyde)", "values": [{"measurement": "cellular ATGL protein", "setting": "ATGL [1]", "result": "accumulation"}]}
{"smiles": "C[C@H]1CCC/C=C/[C@@H]2C[C@H](O)C[C@H]2[C@H](O)/C=C/C(=O)O1", "note": "[BFA, Brefeldin A]", "values": [{"measurement": "intracellular ATGL levels upon glucose deprivation", "setting": "ATGL [2]; HepG2 after treatment with BFA (5 µg/mL, 6 hours)", "result": "failed to upregulate"}]}
{"smiles": "O=CC[C@@H](O)[C@H](O)[C@H](O)CO", "note": "[2-DG, 2-Deoxy-D-glucose]", "values": [{"measurement": "ATGL protein abundance", "setting": "ATGL [2]; HepG2, 2-DG treatment (50 mM), transcript levels unchanged", "result": "strongly induced"}, {"measurement": "lipolysis (plasma FFA levels)", "setting": "wild-type mice; 2-DG 2 g/kg BW, 1 h, 6 h and 12 h", "result": "significantly induced"}, {"measurement": "ATGL levels in livers of wild-type mice", "setting": "wild-type mice; 2-DG for 1 hour, no upregulation in Cul7 and Fbxw8 double knockout", "result": "upregulation"}, {"measurement": "ATGL protein levels in the liver and iBAT", "setting": "wild-type mice; 1 hour after 2-DG", "result": "increased"}, {"measurement": "HSL phosphorylation in white adipose tissues", "setting": "wild-type mice; [3]", "result": "upregulation"}, {"measurement": "plasma insulin levels", "setting": "wild-type mice; [3]", "result": "reduction"}, {"measurement": "ATGL protein levels in the liver, iBAT, iWAT and gWAT", "setting": "wild-type mice; longer glucose deprivation (6 h, 12 h after 2-DG)", "result": "further accumulation"}]}
